From US9801901B2, “Alginate oligomers for use in overcoming multidrug resistance in bacteria” (priority 2009, dated 2017)
≈ marks a conversion by molar mass, not a printed value. Read-outs that look alike come from different tables or passages of the source. Marks after values point to notes of the source that are not given here.

Experiments:
MDR Pseudomonas strains = assay: MIC assay of Example 1, summary over the MDR Pseudomonas strains; type: cell-based, Pseudomonas aeruginosa
[1] = test system: V23 1322 Burkholderia cepacia; assay: MIC assay, CAMHB with alginate oligomer, no visible growth; type: cell-based
[2] = test system: Klebsiella pneumoniae KP05 506 from India (V3); assay: as above; type: cell-based; details: for MIC: V3 KP05 506
[3] = test system: Acinetobacter baumannii MDR ACB from Libya (V4); assay: as above; type: cell-based
Text: The study described in Example 1 was repeated with the following strains of bacteria and antibiotics as detailed in Tables 4, 5 and 6.
(§1) The study described in Example 1 was repeated with the following strains of Acinetobacter baumannii, antibiotics and M-block alginate oligomer in place of OligoG CF-5/20 as detailed in Table 7. The M-block oligomer is 100% M with a DPn of 15 to 18,

[4] = test system: MDR strains of Pseudomonas aeruginosa, Klebsiella pneumoniae, Burkholderia cepacia, Acinetobacter lwoffii, Acinetobacter baumannii and E. coli; assay: MIC assay of Example 2, summary over the strains of Tables 4, 5 and 6; type: cell-based; details: Example 2, Tables 4, 5 and 6
[5] = test system: Pseudomonas aeruginosa, Klebsiella pneumoniae and Acinetobacter baumannii strains; assay: MIC assay of Example 1, summary over the strains; type: cell-based; details: Example 1, Tables 1 and 2, all strains
[6] = test system: strains of E. coli displaying MDR phenotypes; assay: MIC-assay, Mueller-Hinton broth with G-block alginate, 384-well, OD600 (Table 11); type: cell-based; details: Escherichia coli, Escherichia coli (5702, Wales, V11) MDR, read-out: MIC
Text: (§2) Minimum inhibitory concentration (MICs) of different antibiotics for strains of E. coli and Providencia stuartii displaying MDR phenotypes in the presence of varying concentrations of OligoCF-5/20 (0-10%). (MIC values are expressed in μg ml^−1).

MDR Providencia stuartii = assay: as above; type: cell-based; details: Providencia stuartii (IR57 India, V7) MDR
Text: as §2

[7] = test system: Pseudomonas aeruginosa MDR 301 from Poland (V2); assay: MIC assay, CAMHB with alginate oligomer, no visible growth; type: cell-based; details: V2 MDR 301 PA
V11 5702 (Wales) E. coli = assay: as above; type: cell-based; details: Table 5, V11 MDR E.coli
V22 6056 Acinetobacter = assay: as above; type: cell-based, Acinetobacter lwoffii; details: Table 5, V22 MDR Acin. lwoff
[8] = test system: V9 (Egypt) Acinetobacter baumannii; assay: as above; type: cell-based; details: Table 5, V9 MDR Acin. baum
[9] = test system: V19 non MDR Acinetobacter baumannii; assay: MIC assay, CAMHB with M-block alginate oligomer, no visible growth; type: cell-based; details: Table 7, V19 non MDR Acin. baum
Text: as §1

CC[C@H]1OC(=O)[C@H](C)[C@@H](O[C@H]2C[C@@](C)(OC)[C@@H](O)[C@H](C)O2)[C@H](C)[C@@H](O[C@@H]2O[C@H](C)C[C@H](N(C)C)[C@H]2O)[C@](C)(O)C[C@@H](C)CN(C)[C@H](C)[C@@H](O)[C@]1(C)O [Azithromycin]
effectiveness when used in combination with the alginate oligomers (MDR Pseudomonas strains): more effective
MIC ([1]; Burkholderia cepacia, Table 5, V23 MDR Burk cep, OligoCF-5/20 0G, read-out: MIC): 128 µg/mL (≈ 171 µM)
MIC ([1]; Burkholderia cepacia, Table 6, V23, Experiment 1 (18-03-10), OligoCF-5/20 0G, read-out: MIC): 64 µg/mL (≈ 85.4 µM)
MIC ([1]; Burkholderia cepacia, Table 6, V23, Experiment 2 (18-03-10), OligoCF-5/20 0G, read-out: MIC): 32 µg/mL (≈ 42.7 µM)
MIC ([1]; Burkholderia cepacia, Table 6, V23, Experiment 3 (19-03-10), OligoCF-5/20 0G, read-out: MIC): 16 µg/mL (≈ 21.4 µM)
MIC ([1]; Table 5, V23 MDR Burk cep, OligoCF-5/20 +2% G): 64^† μg/ml
MIC ([1]; Table 5, V23 MDR Burk cep, OligoCF-5/20 +6% G): 16^† μg/ml
MIC ([1]; Table 5, V23 MDR Burk cep, OligoCF-5/20 +10% G): 4 µg/mL (≈ 5.34 µM)
MIC ([1]; Table 6, V23, Experiment 1 (18-03-10), OligoCF-5/20 +2% G): 64 µg/mL (≈ 85.4 µM)
MIC ([1]; Table 6, V23, Experiment 1 (18-03-10), OligoCF-5/20 +6% G): 64 µg/mL (≈ 85.4 µM)
MIC ([1]; Table 6, V23, Experiment 1 (18-03-10), OligoCF-5/20 +10% G): 32^† μg/ml
MIC ([1]; Table 6, V23, Experiment 2 (18-03-10), OligoCF-5/20 +2% G): 32 µg/mL (≈ 42.7 µM)
MIC ([1]; Table 6, V23, Experiment 2 (18-03-10), OligoCF-5/20 +6% G): 16^† μg/ml
MIC ([1]; Table 6, V23, Experiment 2 (18-03-10), OligoCF-5/20 +10% G): 16^† μg/ml
MIC ([1]; Table 6, V23, Experiment 3 (19-03-10), OligoCF-5/20 +2% G): 16 µg/mL (≈ 21.4 µM)
MIC ([1]; Table 6, V23, Experiment 3 (19-03-10), OligoCF-5/20 +6% G): 16 µg/mL (≈ 21.4 µM)
MIC ([1]; Table 6, V23, Experiment 3 (19-03-10), OligoCF-5/20 +10% G): 16 µg/mL (≈ 21.4 µM)
effectiveness in conjunction with alginate oligomers ([2]; Example 1, KP05 506): more effective
MIC ([2]; Klebsiella pneumoniae, Table 1, OligoCF-5/20 0G, read-out: MIC): 32 µg/mL (≈ 42.7 µM)
MIC ([2]; Klebsiella pneumoniae, Table 1, OligoCF-5/20 +2% G, read-out: MIC): 16 µg/mL (≈ 21.4 µM)
MIC ([2]; Klebsiella pneumoniae, Table 1, OligoCF-5/20 +6% G, read-out: MIC): 16 µg/mL (≈ 21.4 µM)
MIC ([2]; Klebsiella pneumoniae, Table 1, OligoCF-5/20 +10% G, read-out: MIC): 8 µg/mL (≈ 10.7 µM)
MIC ([2]; Table 2, OligoCF-5/20 0G): 32^†
MIC ([2]; Table 2, OligoCF-5/20 +2% G): 16^†
MIC ([2]; Table 2, OligoCF-5/20 +6% G): 16^†
MIC ([2]; Table 2, OligoCF-5/20 +10% G): 8^†
MIC ([3]; Acinetobacter baumannii, Table 1, V4 ACB (Libya), OligoCF-5/20 0G, read-out: MIC): 8 µg/mL (≈ 10.7 µM)
MIC ([3]; Acinetobacter baumannii, Table 1, V4 ACB (Libya), OligoCF-5/20 +2% G, read-out: MIC): 2 µg/mL (≈ 2.67 µM)
MIC ([3]; Acinetobacter baumannii, Table 1, V4 ACB (Libya), OligoCF-5/20 +6% G, read-out: MIC): < 0.25 µg/mL
MIC ([3]; Acinetobacter baumannii, Table 1, V4 ACB (Libya), OligoCF-5/20 +10% G, read-out: MIC): < 0.25 µg/mL
MIC ([3]; Acinetobacter baumannii, Table 7, V4 MDR Acin baum (Libya), M-block oligomer 0M, read-out: MIC): 8 µg/mL (≈ 10.7 µM)
MIC ([3]; Acinetobacter baumannii, Table 7, V4 MDR Acin baum (Libya), M-block oligomer +2% M, read-out: MIC): 8 µg/mL (≈ 10.7 µM)
MIC ([3]; Acinetobacter baumannii, Table 7, V4 MDR Acin baum (Libya), M-block oligomer +6% M, read-out: MIC): 8 µg/mL (≈ 10.7 µM)
MIC ([3]; Acinetobacter baumannii, Table 7, V4 MDR Acin baum (Libya), M-block oligomer +10% M, read-out: MIC): 2 µg/mL (≈ 2.67 µM)
effect in combination with alginate oligomers ([3]; Example 1, Acinetobacter baumannii isolate): more positive effect
MIC ([3]; Table 2, V4 ACB (Libya), OligoCF-5/20 0G): 8^†
MIC ([3]; Table 2, V4 ACB (Libya), OligoCF-5/20 +2% G): 2^†
MIC ([3]; Table 2, V4 ACB (Libya), OligoCF-5/20 +6% G): <0.25^†
MIC ([3]; Table 2, V4 ACB (Libya), OligoCF-5/20 +10% G): <0.25†
change of MIC with increasing amounts of OligoG CF-5/20 [4]: decreasing MICs
change of MIC with increasing amounts of OligoG CF-5/20 [5]: decreasing MICs
MIC ([6]; G-block (OligoCF-5/20) 0%): 16 µg/mL (≈ 21.4 µM)
MIC ([6]; G-block (OligoCF-5/20) 2%): 16 µg/mL (≈ 21.4 µM)
MIC ([6]; G-block (OligoCF-5/20) 6%): 8 µg/mL (≈ 10.7 µM)
MIC ([6]; G-block (OligoCF-5/20) 10%): 16 µg/mL (≈ 21.4 µM)
MIC (MDR Providencia stuartii; G-block (OligoCF-5/20) 0%): < 2 µg/mL
MIC (MDR Providencia stuartii; G-block (OligoCF-5/20) 2%): < 2 µg/mL
MIC (MDR Providencia stuartii; G-block (OligoCF-5/20) 6%): < 2 µg/mL
MIC (MDR Providencia stuartii; G-block (OligoCF-5/20) 10%): < 2 µg/mL
MIC ([7]; Pseudomonas aeruginosa, Table 1, OligoCF-5/20 0G, read-out: MIC): 64 µg/mL (≈ 85.4 µM)
MIC ([7]; Pseudomonas aeruginosa, Table 1, OligoCF-5/20 +2% G, read-out: MIC): 64 µg/mL (≈ 85.4 µM)
MIC ([7]; Pseudomonas aeruginosa, Table 1, OligoCF-5/20 +6% G, read-out: MIC): 32 µg/mL (≈ 42.7 µM)
MIC ([7]; Pseudomonas aeruginosa, Table 1, OligoCF-5/20 +10% G, read-out: MIC): 16 µg/mL (≈ 21.4 µM)
MIC ([7]; Table 2, OligoCF-5/20 0G): 64^†
MIC ([7]; Table 2, OligoCF-5/20 +2% G): 64 µg/mL (≈ 85.4 µM)
MIC ([7]; Table 2, OligoCF-5/20 +6% G): 32^†
MIC ([7]; Table 2, OligoCF-5/20 +10% G): 16^†
MIC (V11 5702 (Wales) E. coli; Escherichia coli, OligoCF-5/20 0G, read-out: MIC): 32 µg/mL (≈ 42.7 µM)
MIC (V11 5702 (Wales) E. coli; OligoCF-5/20 +2% G): 16^† μg/ml
MIC (V11 5702 (Wales) E. coli; OligoCF-5/20 +6% G): 16^† μg/ml
MIC (V11 5702 (Wales) E. coli; OligoCF-5/20 +10% G): 32 µg/mL (≈ 42.7 µM)
MIC (V22 6056 Acinetobacter; Acinetobacter, OligoCF-5/20 0G, read-out: MIC): < 0.25 µg/mL
MIC (V22 6056 Acinetobacter; OligoCF-5/20 +2% G): <0.25 µg/mL
MIC (V22 6056 Acinetobacter; OligoCF-5/20 +6% G): <0.25 µg/mL
MIC (V22 6056 Acinetobacter; OligoCF-5/20 +10% G): <0.25 µg/mL
MIC ([8]; Acinetobacter baumannii, OligoCF-5/20 0G, read-out: MIC): 16 µg/mL (≈ 21.4 µM)
MIC ([8]; OligoCF-5/20 +2% G): 4^† μg/ml
MIC ([8]; OligoCF-5/20 +6% G): 0.5^† μg/ml
MIC ([8]; OligoCF-5/20 +10% G): <0.25 µg/mL
MIC ([9]; M-block oligomer 0M): 32 µg/mL (≈ 42.7 µM)
MIC ([9]; M-block oligomer +2% M): 16 µg/mL (≈ 21.4 µM)
MIC ([9]; M-block oligomer +6% M): 16 µg/mL (≈ 21.4 µM)
MIC ([9]; M-block oligomer +10% M): 16 µg/mL (≈ 21.4 µM)
